How the values were obtained:
[1] = target: T1, VPAC2 (Homo sapiens, UniProt P41587); assay: FAM-VIP competition binding by FACS ([…] VIP binding left at […]) and aequorin calcium mobilization in CHO cells expressing VPAC2; IC50 extrapolated from the partial calcium inhibition; assay type: cell-based
T1 construct: gene VIPR2
T1 sequence (P41587 24-438): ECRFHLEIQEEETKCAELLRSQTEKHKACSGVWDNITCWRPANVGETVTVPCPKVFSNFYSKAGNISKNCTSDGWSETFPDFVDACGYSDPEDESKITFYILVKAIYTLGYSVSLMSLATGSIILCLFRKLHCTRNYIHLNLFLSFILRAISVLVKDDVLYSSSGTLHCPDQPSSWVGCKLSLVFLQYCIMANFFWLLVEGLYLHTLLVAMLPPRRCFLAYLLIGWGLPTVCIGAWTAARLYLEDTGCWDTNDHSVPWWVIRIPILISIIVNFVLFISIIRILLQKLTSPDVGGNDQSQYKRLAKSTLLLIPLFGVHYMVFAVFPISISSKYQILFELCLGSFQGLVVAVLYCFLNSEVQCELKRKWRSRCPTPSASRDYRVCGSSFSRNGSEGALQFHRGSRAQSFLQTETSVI

[2] = target: T2, VPAC1 (Homo sapiens, UniProt P32241); assay: FAM-VIP competition binding by FACS ([…] VIP binding left at […]) and aequorin calcium mobilization in CHO cells expressing VPAC1; IC50 extrapolated from the partial calcium inhibition; assay type: cell-based
T2 construct: gene VIPR1
T2 sequence (P32241 31-457): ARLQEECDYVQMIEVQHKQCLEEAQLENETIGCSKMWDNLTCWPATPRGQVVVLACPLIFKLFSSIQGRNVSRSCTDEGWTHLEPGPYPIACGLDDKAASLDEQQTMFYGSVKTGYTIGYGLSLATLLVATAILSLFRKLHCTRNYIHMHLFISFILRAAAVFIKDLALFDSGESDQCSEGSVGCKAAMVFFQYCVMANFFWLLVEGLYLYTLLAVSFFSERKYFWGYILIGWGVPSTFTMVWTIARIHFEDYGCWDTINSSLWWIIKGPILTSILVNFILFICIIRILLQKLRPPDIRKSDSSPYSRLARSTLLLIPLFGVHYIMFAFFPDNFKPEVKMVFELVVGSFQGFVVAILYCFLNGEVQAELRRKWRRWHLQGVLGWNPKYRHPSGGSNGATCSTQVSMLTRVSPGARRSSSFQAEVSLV

IC50 [1]: ~20 µM | IC50 [2]: ~50 µM
SMILES: CCCSc1nc(N[C@@H]2C[C@H]2c2ccc(F)c(F)c2)c2nnn([C@@H]3C[C@H](OCCO)[C@@H](O)[C@H]3O)c2n1 [ticagrelor]

From article PMC8637020, “Drug Repositioning For Allosteric Modulation of VIP and PACAP Receptors” (Frontiers in Endocrinology, 2021)
